Assay results from ChEMBL document CHEMBL3046059, “Syntheses and biological activities of octahydro-1H-cyclopenta[d]pyrimidine derivatives” (2007).

Assays:
Format in all cases: functional
Details in all cases: 24 h
Aphis craccivora [1] = assay: Insecticidal activity against Aphis craccivora (cowpea aphid) assessed as mortality at 500 ug/mL measured after 1 day
Aphis craccivora [2] = assay: Insecticidal activity against Aphis craccivora (cowpea aphid) assessed as mortality at 15.625 ug/mL measured after 1 day
Aphis craccivora [3] = assay: Insecticidal activity against Aphis craccivora (cowpea aphid) assessed as mortality at 62.5 ug/mL measured after 1 day
Aphis craccivora [4] = assay: Insecticidal activity against Aphis craccivora (cowpea aphid) assessed as mortality at 125 ug/mL measured after 1 day
Aphis craccivora [5] = assay: Insecticidal activity against Aphis craccivora (cowpea aphid) assessed as mortality at 450 ug/mL measured after 1 day

Compound | mortality at 500 µg/mL (Aphis craccivora [1]) | also measured
N#C/N=C1\NCC2CCCC2N1Cc1ccc(Cl)nc1 (stereo not given) | 38% | –
O=[N+]([O-])/C=C1\NCCN1Cc1ccc(Cl)nc1 | – | mortality at 15.625 µg/mL (Aphis craccivora [2]): 60%; mortality at 62.5 µg/mL (Aphis craccivora [3]): 94%
O=[N+]([O-])/C=C1\NCC2CCCC2N1Cc1cccnc1 (stereo not given) | 82% | –
CCCCN1CC([N+](=O)[O-])=C2N(CC3CCCC3N2Cc2ccc(Cl)nc2)C1 (stereo not given) | 32% | –
O=[N+]([O-])/C=C1\NC2CCCC2CN1Cc1ccc(Cl)nc1 (stereo not given) | < 59% | –
CS/C(=N\C#N)NCC1CCCC1NCc1ccc(Cl)nc1 (stereo not given) | 34% | –
CC(C)N1CC([N+](=O)[O-])=C2N(CC3CCCC3N2Cc2ccc(Cl)nc2)C1 (stereo not given) | – | mortality at 125 µg/mL (Aphis craccivora [4]): 56%; mortality at 450 µg/mL (Aphis craccivora [5]): 88%
CN1CC([N+](=O)[O-])=C2N(CC3CCCC3N2Cc2ccc(Cl)nc2)C1 (stereo not given) | 54% | –
CC1CCC2CN/C(=C\[N+](=O)[O-])N(Cc3ccc(Cl)nc3)C12 (stereo not given) | 51% | –
CCN1CC([N+](=O)[O-])=C2N(CC3CCCC3N2Cc2ccc(Cl)nc2)C1 (stereo not given) | 90% | –
CCCN1CC([N+](=O)[O-])=C2N(CC3CCCC3N2Cc2ccc(Cl)nc2)C1 (stereo not given) | 61% | –
O=[N+]([O-])C1=C2N(CC3CCCC3N2Cc2ccc(Cl)nc2)CN(CCO)C1 (stereo not given) | 60% | –
O=[N+]([O-])/C=C1\NCC2CCCC2N1Cc1ccc(Cl)nc1 (stereo not given) | 83% | –
